In patent US8022043B2, “Ceramide derivatives as modulators of immunity and autoimmunity” (Albert Einstein College of Medicine of Yeshiva University, priority 2004, dated 2011):

Tests used:
[1] = tested on: T cell antigen receptors of human NKT cells; assay: Glycolipid human CD1d tetramer binding; settings: normal blood specimens
human NKT cell clones = assay: Human in vitro NKT cell assay system; type: cell-based; settings: proliferative responses and cytokine secretion
Description: For example, DB03-4 and DB03-5 are active in stimulation of human NKT cell clones in vitro, and elicits proliferative responses and cytokine secretion when evaluated using culture systems previously established in the literature (See, e.g., Spada F M, Sugita M, Watts G F M, Koezuka Y, and Porcelli S A. Low expression but potent antigen presenting function of CD1d on monocyte lineage cells, Eur. J. Immunol., 30:3468-3477 (2000), and Spada F M, Koezuka Y, Porcelli S A, CD1d-restricted recognition of synthetic glycolipid antigens by human NK T cells. J Exp Med; 188:1529-1534 (1998), see also, Lee P T et al., J Clin Invest., 2002 September; 110(6):793-800. […] Acad. Sci. (USA), 102:3383-8 (2005)).

C57BL/6 mice = assay: Serum IL-4 and IFNγ after a single i.p. injection; type: in vivo
Protocol: Serum levels of L-4 and IFNγ after a single injection of DB01-1, DB03-4, or DB03-5 are shown. C57BL/6 mice (11-13 weeks old) were given a single i.p. injection of 4.8 nanomoles of the compounds or phosphate buffered saline (PBS)/vehicle control. Serum cytokine levels were measured 2 and 20 hours later by capture ELISA. Bars show means of three mice, with standard deviation. Note that DB01-1 has nearly identical structure to KRN7000 (C24 fatty acid as compared to C26) and has activity that is indistinguishable from KRN7000 in multiple bioassays. We use DB01-1 as a “KRN7000 mimic” because it has been synthesized by our group and is readily available for our studies, and KRN7000 was unavailable due to license restrictions.
A most intriguing property of KRN7000 analogues is that in some cases they may elicit immune responses that are qualitatively different from those that occur following stimulation with the parent compound. […] This selective activation of IL-4 production by NK T cells was proposed to be the basis for the enhanced therapeutic effects of OCH in the EAE model of central nervous system autoimmune disease. We have observed a similar in vivo effect on the nature of the NK T cell response using several of our ceramide-like glycolipids. […] These responses are similar to those seen for DB01-1, an analogue that is structurally almost identical to KRN7000 (C24 fatty acid instead of C26, otherwise identical) and indistinguishable in terms of its activity in our hands. […] This selective IL-4 induction is virtually identical to that reported for the OCH analogue, and thus illustrates the potential for amino substituted analogues of KRN7000 to induce qualitatively different immunomodulatory effects in vivo. The results reported in FIG. 9 were obtained by measuring serum levels of IL-4 and IFNγ after administering a single injection of […], DB03-4, or DB03-5 to C57BL/6 mice. C57BL/6 mice (11-13 weeks old) were given a single i.p. injection of 4.8 nanomoles of the ceramide-like glycolipids or PBS/vehicle control. Serum cytokine levels were measured 2 and 20 hours later by capture ELISA. Bars show means of three mice, with standard deviation.
For experiments involving in vivo treatment of mice with the ceramide-like glycolipids, the ceramide-like glycolipids were administered by i.p. or i.v. injection in 0.2 ml PBS+0.025% Tween-20, or in vehicle alone. A typical dose is about 4-5 nmoles per animal per injection. Representative references for administering an α-galactosyl ceramide to mice by i.p., i.v. or p.o. routes are S. Sharif et al., Activation of natural killer T cells by alpha-galactosylceramide treatment prevents the onset and recurrence of autoimmune Type 1 diabetes, Nat. Med., Sep. 7, 2001, (9):1057-62 and K. Miyamoto et al., A synthetic glycolipid prevents autoimmune encephalomyelitis by inducing TH2 bias of natural killer T cells, Nature. Oct. 4, 2001, 413(6855):5314.

NOD mice = assay: Prevention of type 1 diabetes in NOD mice; type: in vivo; settings: i.p. once per week, 200 micrograms/kg; comparator DB01-1 (indicated as KRN7000)
Protocol: Cohorts of 6-8 female NOD mice were treated with placebo (vehicle) or DB01-1 (indicated as KRN7000), DB03-4 or DB03-5 injections once weekly beginning at 4-5 weeks of age. Treatment was discontinued after 5 injections (DB03-4) or 7 injections (DB03-5). Top graphs show incidence of glycosuria, and bottom graphs show survival in each cohort.
Given the widely held belief that selective augmentation of IL-4 production can be protective or therapeutic in the setting of many autoimmune diseases, we have initiated studies to examine the efficacy of compounds such as DB03-4 and DB03-5 in diabetes prone NOD mice. […] The results reported in FIG. 10 were obtained by treating three groups, each consisting of 9-12 female NOD mice, starting from age 5 weeks with a ceramide-like glycolipid. The indicated ceramide-like glycolipids (DB03-4, DB03-5, or KRN7000) were injected i.p. once per week in a dose of 200 micrograms/kg. Treatment was discontinued at 11 weeks of age, and the mice were monitored weekly for glucosuria (top) and death (bottom).
For experiments involving in vivo treatment of mice with the ceramide-like glycolipids, the ceramide-like glycolipids were administered by i.p. or i.v. injection in 0.2 ml PBS+0.025% Tween-20, or in vehicle alone. A typical dose is about 4-5 nmoles per animal per injection. […]

iNKT cells = assay: In vitro cytokine modulation, murine cell assay system; type: cell-based; settings: for in vitro activity at modulating cytokines: murine cell assay system
Description: The term iNKT cells, as used herein, mean the specific subset of CD1d-dependent T cells that expresses the invariant TCRα chain rearrangement consisting of Vα14-Jα18 in mice, and Vα24-Jα18 in humans. These cells are uniformly reactive to α-galactosylceramides presented by CD1d. These cells are also referred to as “Type 1” NKT cells, and the distinction between the different types of NKT cells and the nomenclature relating to this are summarized in the publication by Godfrey et al., Nat Rev Immunol. 2004 March; 4(3):231-7. Methods for determining cytokine production by iNKT cells in response to CD1d-presented glycolipids for determination of strong or weak agonist activity are described in Yu K O A, Im J S, Molano A, Dutronc Y, Illarionov P A, Forestier C, Fujiwara N, Arias I, Miyake S, Yamamura T, Chang Y-T, Besra G S, Porcelli S A, Modulation of CD1d-restricted NKT cell responses using N-acyl variants of α-galactosylceramides, Proc. Nat. Acad. Sci. (USA), 102:3383-8 (2005), see also Godfrey D I et al., Nat Rev Immunol. 2004 March; 4(3):231-7.

mice = settings: administered in vivo to mice; cited from earlier work
[2] = tested on: mouse model of experimental allergic encephalomyelitis (EAE); settings: compared with KRN7000; cited from earlier work
NK T cells = assay: NK T cell activation screens (Example, FIG. 5 and Table 1); type: cell-based; settings: see Example
Description: Using these methods, we produced more than 60 novel amino substituted analogues of KRN7000. These were screened in a functional assay that assessed the ability of the compounds to activate NK T cell hybridomas in the presence of various types of cells expressing CD1d, or in the presence of recombinant CD1d proteins bound to the tissue culture plate surface (FIG. 5).

[3] = tested on: splenocytes from NZB/W F1 mice; assay: Cytokine induction in vitro with splenocytes from NZB/W F1 mice; type: cell-based
NK T hybridoma DN32.D3 [4] = assay: Murine NK T cell hybridoma stimulation assay (IL-2 release), HeLa.hCD1d as APC; type: cell-based, mouse
Protocol: (§1) The ability of the compounds to activate NK T cell hybridomas in the presence of various types of cells expressing CD1d reported in FIG. 5A was determined using a murine NK T cell hybridoma stimulation assay. CD1d-transfected RMA-S cells were plated at 50,000 cells/well in flat-bottom tissue culture plates in 100 microliters complete medium containing varying concentrations of ceramide-like glycolipids for 6 h at 37° C. The plates were then centrifuged (430 g, 3 min), and cells washed with PBS three times. Fifty thousand NKT hybridoma cells (clone DN3A4.1-2) were then added in 100 microliters of medium for a 12 h stimulation. Cell-free supernatants were collected at the end of incubation and assayed for IL-2 by standard capture ELISA. Relative potencies of the ceramide-like glycolipids were calculated from the reciprocal effective concentrations at half-maximal response (1/EC50), and expressed as units by normalization to the observed potency for KRN7000.
(§2) IL-2 production by NK T hybridoma DN32D3 in response to eight selected ceramide-like glycolipids, was determined using three different cell types as antigen presenting cells. RMA-S.mCD1d are a mouse lymphoma line that has been transfected to express murine CD1d. JAWS II is a mouse dendritic cell line that naturally expresses mouse CD1d. HeLa.hCD1d is a human cervical carcinoma cell line that has been transfected to express human CD1d. […]

[5] = tested on: Bulk splenocytes from C57BL/6 mice; assay: Splenocyte proliferation assay (3H-thymidine incorporation); type: cell-based; settings: FIG. 5D
Protocol: The results were obtained using a splenocyte proliferation assay according to the following procedure: Bulk splenocytes from C57BL/6 mice were plated at 300,000 per well in 96-well flat-bottom tissue culture plates with the indicated ceramide-like glycolipid diluted in complete medium to the concentrations shown. After 48 h at 37° C., the plate wells were pulsed with 20 microliters of medium containing 50 microCi/ml ^3H-thymidine and incubated for a further 18 h. Cell proliferation was estimated by harvesting pulsed cells onto 96-well filtermats and scintillation counting on a 1450 Microbeta Trilux instrument (Wallac/Perkin Elmer, Boston, Mass.).

[6] = tested on: Bulk splenocytes from C57BL/6 mice; assay: Cytokine response of splenocyte cultures (IL-4 and IFNγ ELISA); type: cell-based; set-up: IL-4 levels compared with DB01-1: dose or concentration left out as unconfirmed; settings: in vitro splenocyte cultures
NK T hybridoma DN32.D3 [7] = assay: Murine NK T cell hybridoma stimulation assay (IL-2 release), RMA-S.mCD1d as APC; type: cell-based, mouse; settings: presented by RMA-S/CD1d cells
Protocol: FIG. 5. […] NK T hybridoma DN32.D3 was cultured with CD1d-transfected RMA-S cells in microtiter plate wells. Each ceramide-like glycolipid was titrated over a concentration range from 0.5-500 nM, and supernatants were harvested after 24 hours for measurement of IL-2 release. Units of activity were calculated as the reciprocal of the concentration of ceramide-like glycolipid required to give a half maximal release of IL-2, and all values were normalized to the activity of KRN7000 (defined as 1 Unit). The dotted line indicates the level of activity for KRN7000. The structures of two ceramide-like glycolipids with markedly elevated activity relative to KRN7000 are shown.
The ability of the compounds to activate NK T cell hybridomas in the presence of various types of cells expressing CD1d reported in FIG. 5A was determined using a murine NK T cell hybridoma stimulation assay. […] Relative potencies of the ceramide-like glycolipids were calculated from the reciprocal effective concentrations at half-maximal response (1/EC50), and expressed as units by normalization to the observed potency for KRN7000.
IL-2 production by NK T hybridoma DN32D3 in response to eight selected ceramide-like glycolipids, was determined using three different cell types as antigen presenting cells. […]

NK T hybridoma DN32.D3 [8] = assay: Murine NK T cell hybridoma stimulation assay (IL-2 release), JAWS II as APC; type: cell-based, mouse; settings: dendritic cell line JAWS-II as antigen presenting cell
Protocol: as §1, §2

splenocyte cultures = assay: Splenocyte cultures (DB03-6); type: cell-based

## CCCCC/C=C\C/C=C\C/C=C\C/C=C\CCCC(=O)N[C@@H](COC1OC(CO)C(O)C(O)C1O)[C@H](O)[C@H](O)CCCCCCCCCCCCCC (stereo partly shown) [DB03-5]
[1]
  binding of glycolipid human CD1d tetramers to human NKT cells: bind strongly
Human NKT cell clones
  stimulation of human NKT cell clones: active
C57BL/6 mice; 20 hours after single i.p. injection of 4.8 nanomoles
  serum IFNγ response: not seen
C57BL/6 mice; two hours after single i.p. injection of 4.8 nanomoles
  serum IL-4 response: strong IL-4 response
NOD mice
  prevention of diabetes in NOD mice compared with KRN7000: superior to KRN7000
iNKT cells
  cytokine bias: bias towards inducing Type 2 cytokines
  in vitro activity at modulating cytokines: show in vitro activity
iNKT cells; in vitro
  IL-4 induction: strong inducers of IL-4
iNKT cells; in vitro, DB03-3: in some murine strains
  IFNγ induction: blunted IFNγ

## CCCCCCCCCCCCCCCCCCCCCCCC(=O)N[C@@H](COC1OC(CO)C(O)C(O)C1O)[C@H](O)[C@H](O)CCCCC (stereo partly shown) [OCH]
mice
  IFNγ production in vivo: failed to stimulate the strong production of interferon-γ
  IL-4 production in vivo: selective production of interleukin-4
[2]
  suppression of autoimmunity in EAE: enhanced ability to suppress autoimmunity

## CCCCCCCCCCCCCC[C@@H](O)[C@@H](O)[C@H](COC1OC(CO)C(O)C(O)C1O)NC(=O)CCCCCC (stereo partly shown) [YTC03-25]
NK T cells
  effectiveness of compound: Particularly effective
[3]
  IL-4 induction relative to IFNγ: enhanced IL-4 induction relative to IFNγ

## CCCCCCCCCCCCCC[C@@H](O)[C@@H](O)[C@H](COC1OC(CO)C(O)C(O)C1O)NC(=O)Cc1ccc(F)cc1 (stereo partly shown) [YTC03-30]
NK T hybridoma DN32.D3 [4]; presented by HeLa cells
  potency greater than KRN7000: at least 100 fold

## CCCCCCCCCCCCCCCCCCCCCCCC(=O)N[C@@H](COC1OC(CO)C(O)C(O)C1O)[C@H](O)[C@H](O)CCCCCCCCCCCCCC (stereo partly shown) [DB02-1]
[5]
  CD1d-dependent proliferation: stimulation of CD1d-dependent proliferation
[6]
  IL-4 levels compared with DB01-1: nearly equivalent
[6]; all concentrations
  IFNγ levels compared with DB01-1: markedly lower

## CCCCCCCCCCCCCC[C@@H](O)[C@@H](O)[C@H](COC1OC(CO)C(O)C(O)C1O)NC(=O)C(c1ccccc1)c1ccccc1 (stereo partly shown) [YTC03-17]
NK T hybridoma DN32.D3 [7]
  potency relative to KRN7000 (IL-2 production): markedly more potent than KRN7000
NK T cells
  effectiveness of compound: Particularly effective
NK T hybridoma DN32.D3 [8]
  response (IL-2 production): very little or no response at all
NK T hybridoma DN32.D3 [4]; presented by HeLa (human CD1d) cells
  potency relative to KRN7000 (IL-2 production): presented about equally
iNKT cells; in vitro
  agonist activity on iNKT cells: strong agonist activity
iNKT cells
  in vitro activity at modulating cytokines: show in vitro activity

## CC/C=C\C/C=C\C/C=C\C/C=C\C/C=C\CCCC(=O)N[C@@H](COC1OC(CO)C(O)C(O)C1O)[C@H](O)[C@H](O)CCCCCCCCCCCCCC (stereo partly shown) [DB03-6]
Splenocyte cultures
  IL-2 induction: minimal IL-2 induction
  IL-4 relative to IFNγ: apparent enhancement of IL-4 relative to IFNγ
  agonist activity: agonist

## CCCCCCCCCCCCCC[C@@H](O)[C@@H](O)[C@H](COC1OC(CO)C(O)C(O)C1O)NC(=O)Cc1ccc(OC)c(OC)c1 (stereo partly shown) [YTC03-24]
[3]
  IL-4 induction relative to IFNγ: enhanced IL-4 induction relative to IFNγ
